According to ChEMBL document CHEMBL6096697, “Structure-Guided Discovery of Novel N4-(Substituted Thiazol-2-yl)-N2-(4-Substituted phenyl)pyrimidine-2,4-Diamines as Potent CDK2 and CDK9 Dual Inhibitors with High Oral Bioavailability” (J Med Chem, 2025):

Target: CDK9/cyclin T1 (Homo sapiens) (UniProt O60563+P50750)
Experiment: Inhibition of CDK9/cyclin T (unknown origin) using […] at 1 uM incubated for 40 mins in presence of ATP by Kinase-Glo assay relative to control
Type: protein-complex assay
Conditions: not given

Structure (SMILES) | inhibition [%]
Cc1cnc(Nc2ccnc(Nc3ccc(S(N)(=O)=O)cc3)n2)s1 | 29
CCOC(=O)c1sc(Nc2nc(Nc3ccc(S(N)(=O)=O)cc3)ncc2F)nc1C | 69
CC(C)c1csc(Nc2ccnc(Nc3ccc(S(N)(=O)=O)cc3)n2)n1 | 81
NS(=O)(=O)c1ccc(Nc2nccc(Nc3nc(-c4ccc(F)cc4)cs3)n2)cc1 | 65
COCCNS(=O)(=O)c1ccc(Nc2ncc(C)c(Nc3nccs3)n2)cc1 | 46
Cc1cnc(Nc2ccc(S(=O)(=O)N3CCCCC3)cc2)nc1Nc1nccs1 | 4
NS(=O)(=O)c1ccc(Nc2ncc(F)c(Nc3nc(-c4ccc(F)cc4)cs3)n2)cc1 | 41
COC(=O)c1sc(Nc2nc(Nc3ccc(S(N)(=O)=O)cc3)ncc2C)nc1C | 84
NS(=O)(=O)c1ccc(Nc2ncc(F)c(Nc3nc(C4CC4)cs3)n2)cc1 | 51

Target: Cyclin-dependent kinase 2/cyclin A (Homo sapiens, UniProt P24941)
Experiment: Inhibition of CDK2/cyclin A (unknown origin) using […] incubated for 40 mins in presence of ATP by Kinase-Glo assay
Type: protein-complex assay
Conditions: not given

Structure (SMILES) | IC50 [nM]
Cc1cnc(Nc2ccc(S(N)(=O)=O)cc2)nc1Nc1nc(C2CC2)cs1 | 5
NS(=O)(=O)c1ccc(Nc2nccc(Nc3ncc([N+](=O)[O-])s3)n2)cc1 | 38
CC(C)c1csc(Nc2nc(Nc3ccc(S(N)(=O)=O)cc3)ncc2F)n1 | 8
NS(=O)(=O)c1ccc(Nc2nccc(Nc3nccs3)n2)cc1 | 52
Cc1cnc(Nc2ccnc(Nc3ccc(S(N)(=O)=O)cc3)n2)s1 | 5
COc1ccc(Nc2nccc(Nc3nccs3)n2)cc1 | 910
CCOC(=O)c1sc(Nc2nc(Nc3ccc(S(N)(=O)=O)cc3)ncc2F)nc1C | 470
CC(C)c1csc(Nc2ccnc(Nc3ccc(S(N)(=O)=O)cc3)n2)n1 | 27
Cc1csc(Nc2nc(Nc3ccc(S(N)(=O)=O)cc3)ncc2C)n1 | 10
Cc1cnc(Nc2ccc(S(N)(=O)=O)cc2)nc1Nc1nc(C(C)C)cs1 | 11
Cc1cnc(Nc2ccc(S(C)(=O)=O)cc2)nc1Nc1nccs1 | 55
Cc1cnc(Nc2ccc(S(N)(=O)=O)cc2)nc1Nc1nc(-c2ccc(F)cc2)cs1 | 32
NS(=O)(=O)c1ccc(Nc2ncc(F)c(Nc3nccs3)n2)cc1 | 10
NS(=O)(=O)c1ccc(Nc2nccc(Nc3nc(C4CC4)cs3)n2)cc1 | 16
CS(=O)(=O)c1ccc(Nc2nccc(Nc3nccs3)n2)cc1 | 110
NS(=O)(=O)c1ccc(Nc2nccc(Nc3nc(-c4ccc(F)cc4)cs3)n2)cc1 | 110
COCCNS(=O)(=O)c1ccc(Nc2ncc(C)c(Nc3nccs3)n2)cc1 | 43
Cc1cnc(Nc2ccc(S(=O)(=O)N3CCCCC3)cc2)nc1Nc1nccs1 | 26
NS(=O)(=O)c1ccc(Nc2ncc(F)c(Nc3nc(-c4ccc(F)cc4)cs3)n2)cc1 | 23
COC(=O)c1sc(Nc2nc(Nc3ccc(S(N)(=O)=O)cc3)ncc2C)nc1C | 53
COc1cnc(Nc2ccc(S(N)(=O)=O)cc2)nc1Nc1nccs1 | 112
NS(=O)(=O)c1ccc(Nc2ncc(F)c(Nc3nc(C4CC4)cs3)n2)cc1 | 11
CCOC(=O)CNc1ccnc(Nc2ccc(OC)cc2)n1 | 4090

Target: not listed separately
Experiment: Inhibition of CDK9/cyclin T (unknown origin) using […] incubated for 40 mins in presence of ATP by Kinase-Glo assay
Parameters: species or system Homo sapiens
Conditions: not given

Structure (SMILES) | IC50 [nM]
Cc1cnc(Nc2ccc(S(N)(=O)=O)cc2)nc1Nc1nc(C2CC2)cs1 | 46
NS(=O)(=O)c1ccc(Nc2nccc(Nc3ncc([N+](=O)[O-])s3)n2)cc1 | 14
CC(C)c1csc(Nc2nc(Nc3ccc(S(N)(=O)=O)cc3)ncc2F)n1 | 38
NS(=O)(=O)c1ccc(Nc2nccc(Nc3nccs3)n2)cc1 | 124
COc1ccc(Nc2nccc(Nc3nccs3)n2)cc1 | 1840
Cc1csc(Nc2nc(Nc3ccc(S(N)(=O)=O)cc3)ncc2C)n1 | 51
Cc1cnc(Nc2ccc(S(N)(=O)=O)cc2)nc1Nc1nc(C(C)C)cs1 | 294
Cc1cnc(Nc2ccc(S(C)(=O)=O)cc2)nc1Nc1nccs1 | 13
Cc1cnc(Nc2ccc(S(N)(=O)=O)cc2)nc1Nc1nc(-c2ccc(F)cc2)cs1 | 89
NS(=O)(=O)c1ccc(Nc2ncc(F)c(Nc3nccs3)n2)cc1 | 217
NS(=O)(=O)c1ccc(Nc2nccc(Nc3nc(C4CC4)cs3)n2)cc1 | 46
Cc1ncc(-c2ccnc(Nc3ccc(S(C)(=O)=O)cc3)n2)n1C(C)C [AZD-5438] | 18
CS(=O)(=O)c1ccc(Nc2nccc(Nc3nccs3)n2)cc1 | 470
COc1cnc(Nc2ccc(S(N)(=O)=O)cc2)nc1Nc1nccs1 | 11
CCOC(=O)CNc1ccnc(Nc2ccc(OC)cc2)n1 | 26100

System: HCT-116
Experiment: Cytotoxicity against human HCT-116 cells assessed as cell growth inhibition incubated for 48 hrs by MTT assay
Type: functional, cell-based
Conditions: HCT-116, 48 h

Structure (SMILES) | IC50 [nM]
Cc1cnc(Nc2ccc(S(N)(=O)=O)cc2)nc1Nc1nc(C2CC2)cs1 | 6600
NS(=O)(=O)c1ccc(Nc2nccc(Nc3ncc([N+](=O)[O-])s3)n2)cc1 | 8830
CC(C)c1csc(Nc2nc(Nc3ccc(S(N)(=O)=O)cc3)ncc2F)n1 | 3870
NS(=O)(=O)c1ccc(Nc2nccc(Nc3nccs3)n2)cc1 | 1380
Cc1cnc(Nc2ccnc(Nc3ccc(S(N)(=O)=O)cc3)n2)s1 | 530
COc1ccc(Nc2nccc(Nc3nccs3)n2)cc1 | 2230
CCOC(=O)c1sc(Nc2nc(Nc3ccc(S(N)(=O)=O)cc3)ncc2F)nc1C | 9260
CC(C)c1csc(Nc2ccnc(Nc3ccc(S(N)(=O)=O)cc3)n2)n1 | 7350
Cc1csc(Nc2nc(Nc3ccc(S(N)(=O)=O)cc3)ncc2C)n1 | 3210
Cc1cnc(Nc2ccc(S(N)(=O)=O)cc2)nc1Nc1nc(C(C)C)cs1 | 5820
Cc1cnc(Nc2ccc(S(C)(=O)=O)cc2)nc1Nc1nccs1 | 6090
Cc1cnc(Nc2ccc(S(N)(=O)=O)cc2)nc1Nc1nc(-c2ccc(F)cc2)cs1 | 6050
NS(=O)(=O)c1ccc(Nc2ncc(F)c(Nc3nccs3)n2)cc1 | 4040
NS(=O)(=O)c1ccc(Nc2nccc(Nc3nc(C4CC4)cs3)n2)cc1 | 3640
Cc1ncc(-c2ccnc(Nc3ccc(S(C)(=O)=O)cc3)n2)n1C(C)C [AZD-5438] | 477
CS(=O)(=O)c1ccc(Nc2nccc(Nc3nccs3)n2)cc1 | 9510
NS(=O)(=O)c1ccc(Nc2nccc(Nc3nc(-c4ccc(F)cc4)cs3)n2)cc1 | 4400
COCCNS(=O)(=O)c1ccc(Nc2ncc(C)c(Nc3nccs3)n2)cc1 | 7420
Cc1cnc(Nc2ccc(S(=O)(=O)N3CCCCC3)cc2)nc1Nc1nccs1 | 3050
NS(=O)(=O)c1ccc(Nc2ncc(F)c(Nc3nc(-c4ccc(F)cc4)cs3)n2)cc1 | 5260
COC(=O)c1sc(Nc2nc(Nc3ccc(S(N)(=O)=O)cc3)ncc2C)nc1C | > 10000
COc1cnc(Nc2ccc(S(N)(=O)=O)cc2)nc1Nc1nccs1 | > 10000
NS(=O)(=O)c1ccc(Nc2ncc(F)c(Nc3nc(C4CC4)cs3)n2)cc1 | 7850
CCOC(=O)CNc1ccnc(Nc2ccc(OC)cc2)n1 | > 10000

Target: not listed separately
Experiment: Inhibition of CDK1/cyclin B (unknown origin) using […] incubated for 40 mins in presence of ATP by Kinase-Glo assay
Parameters: species or system Homo sapiens
Conditions: not given

Structure (SMILES) | IC50 [nM]
CCOC(=O)CNc1ccnc(Nc2ccc(OC)cc2)n1 | > 30000

Target: Aurora kinase A (Homo sapiens) (UniProt O14965)
Sequence (O14965 whole entry): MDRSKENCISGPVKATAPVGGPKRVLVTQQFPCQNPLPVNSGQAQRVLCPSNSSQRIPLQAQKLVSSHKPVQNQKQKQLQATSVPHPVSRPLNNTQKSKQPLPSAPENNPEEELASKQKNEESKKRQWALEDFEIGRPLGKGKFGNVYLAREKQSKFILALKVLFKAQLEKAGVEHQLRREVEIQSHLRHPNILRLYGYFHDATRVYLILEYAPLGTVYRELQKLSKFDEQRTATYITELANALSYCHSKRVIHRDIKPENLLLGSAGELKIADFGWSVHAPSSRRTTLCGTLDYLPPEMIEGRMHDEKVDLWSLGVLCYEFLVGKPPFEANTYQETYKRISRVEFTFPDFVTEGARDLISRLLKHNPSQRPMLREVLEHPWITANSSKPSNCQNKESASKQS
Experiment: Inhibition of Aurora A (unknown origin) at 1 uM relative to control
Conditions: not given

Structure (SMILES) | inhibition [%]
Cc1ncc(-c2ccnc(Nc3ccc(S(C)(=O)=O)cc3)n2)n1C(C)C [AZD-5438] | > 50

Target: Glycogen synthase kinase-3 alpha (Homo sapiens) (UniProt P49840)
Sequence (P49840 2-483 limits assumed): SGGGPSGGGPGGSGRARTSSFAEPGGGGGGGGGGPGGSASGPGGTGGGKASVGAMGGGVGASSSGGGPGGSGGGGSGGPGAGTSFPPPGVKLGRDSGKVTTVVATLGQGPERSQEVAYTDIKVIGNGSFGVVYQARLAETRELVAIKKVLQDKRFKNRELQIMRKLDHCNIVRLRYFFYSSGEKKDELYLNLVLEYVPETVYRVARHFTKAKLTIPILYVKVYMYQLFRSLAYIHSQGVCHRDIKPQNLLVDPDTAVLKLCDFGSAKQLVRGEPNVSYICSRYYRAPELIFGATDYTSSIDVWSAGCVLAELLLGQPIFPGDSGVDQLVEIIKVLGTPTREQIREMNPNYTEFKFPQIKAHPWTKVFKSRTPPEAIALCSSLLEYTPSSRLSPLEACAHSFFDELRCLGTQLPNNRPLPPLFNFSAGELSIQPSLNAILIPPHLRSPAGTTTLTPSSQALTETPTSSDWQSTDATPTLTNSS
Experiment: Inhibition of GSK3-alpha (unknown origin) at 1 uM relative to control
Conditions: not given

Structure (SMILES) | inhibition [%]
Cc1ncc(-c2ccnc(Nc3ccc(S(C)(=O)=O)cc3)n2)n1C(C)C [AZD-5438] | > 50

Species on record: Homo sapiens
Experiment: Inhibition of c-Src (unknown origin) at 1 uM relative to control
Conditions: not given

Structure (SMILES) | inhibition [%]
Cc1ncc(-c2ccnc(Nc3ccc(S(C)(=O)=O)cc3)n2)n1C(C)C [AZD-5438] | > 50

System: MDA-MB-231
Experiment: Antiproliferative activity against human MDA-MB-231 cells assessed as cell growth inhibition incubated for 48 hrs by MTT assay
Type: functional, cell-based
Conditions: MDA-MB-231, 48 h

Structure (SMILES) | IC50 [nM]
Cc1ncc(-c2ccnc(Nc3ccc(S(C)(=O)=O)cc3)n2)n1C(C)C [AZD-5438] | 151
CCOC(=O)CNc1ccnc(Nc2ccc(OC)cc2)n1 | 32600

System: MCF7
Experiment: Antiproliferative activity against human MCF7 cells assessed as cell growth inhibition incubated for 48 hrs by MTT assay
Type: functional, cell-based
Conditions: MCF7, 48 h

Structure (SMILES) | IC50 [nM]
CCOC(=O)CNc1ccnc(Nc2ccc(OC)cc2)n1 | > 30000

System: HeLa
Experiment: Antiproliferative activity against human HeLa cells assessed as cell growth inhibition incubated for 48 hrs by MTT assay
Type: functional, cell-based
Conditions: not given

Structure (SMILES) | IC50 [nM]
CCOC(=O)CNc1ccnc(Nc2ccc(OC)cc2)n1 | 29300

System: HT-29
Experiment: Antiproliferative activity against human HT-29 cells assessed as cell growth inhibition incubated for 48 hrs by MTT assay
Type: functional, cell-based
Conditions: HT-29, 48 h

Structure (SMILES) | IC50 [nM]
Cc1ncc(-c2ccnc(Nc3ccc(S(C)(=O)=O)cc3)n2)n1C(C)C [AZD-5438] | 1160
CCOC(=O)CNc1ccnc(Nc2ccc(OC)cc2)n1 | > 30000

System: U-87 MG
Experiment: Antiproliferative activity against human U-87 MG cells assessed as cell growth inhibition incubated for 48 hrs by MTT assay
Type: functional, cell-based, U-87MG ATCC
Conditions: not given

Structure (SMILES) | IC50 [nM]
Cc1ncc(-c2ccnc(Nc3ccc(S(C)(=O)=O)cc3)n2)n1C(C)C [AZD-5438] | > 30000
CCOC(=O)CNc1ccnc(Nc2ccc(OC)cc2)n1 | > 30000

System: HepG2
Experiment: Antiproliferative activity against human HepG2 cells assessed as cell growth inhibition incubated for 48 hrs by MTT assay
Type: functional, cell-based
Conditions: HepG2, 48 h

Structure (SMILES) | IC50 [nM]
Cc1ncc(-c2ccnc(Nc3ccc(S(C)(=O)=O)cc3)n2)n1C(C)C [AZD-5438] | 12400
CCOC(=O)CNc1ccnc(Nc2ccc(OC)cc2)n1 | > 30000

System: MV4-11
Experiment: Antiproliferative activity against human MV4-11 cells assessed as cell growth inhibition incubated for 48 hrs by MTT assay
Type: functional, cell-based
Conditions: MV4-11, 48 h

Structure (SMILES) | IC50 [nM]
Cc1ncc(-c2ccnc(Nc3ccc(S(C)(=O)=O)cc3)n2)n1C(C)C [AZD-5438] | 2080
CCOC(=O)CNc1ccnc(Nc2ccc(OC)cc2)n1 | 28100

System: A549
Experiment: Antiproliferative activity against human A549 cells assessed as cell growth inhibition incubated for 48 hrs by MTT assay
Type: functional, cell-based
Conditions: A549, 48 h

Structure (SMILES) | IC50 [nM]
Cc1ncc(-c2ccnc(Nc3ccc(S(C)(=O)=O)cc3)n2)n1C(C)C [AZD-5438] | 1470
CCOC(=O)CNc1ccnc(Nc2ccc(OC)cc2)n1 | > 30000

System: A2780
Experiment: Antiproliferative activity against human A2780 cells assessed as cell growth inhibition incubated for 48 hrs by MTT assay
Type: functional, cell-based
Conditions: A2780, 48 h

Structure (SMILES) | IC50 [nM]
Cc1ncc(-c2ccnc(Nc3ccc(S(C)(=O)=O)cc3)n2)n1C(C)C [AZD-5438] | 1260
CCOC(=O)CNc1ccnc(Nc2ccc(OC)cc2)n1 | > 30000

System: not listed separately
Experiment: Antiproliferative activity against HEK293 cells assessed as cell growth inhibition incubated for 48 hrs by MTT assay
Type: toxicity, cell-based
Conditions: human

Structure (SMILES) | IC50 at 48 h [nM]
Cc1ncc(-c2ccnc(Nc3ccc(S(C)(=O)=O)cc3)n2)n1C(C)C [AZD-5438] | 18000
CCOC(=O)CNc1ccnc(Nc2ccc(OC)cc2)n1 | 126000
